# Reference: PubChem BioAssay (NCI)
#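 These data come from cells grown in 96-well plates and exposed to compound for 48 hours at five concentrations. GI50 marks 50% less growth. TGI marks complete inhibition of growth.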
# What was measured:
# Experiment in all cases: NCI tumour cell line growth inhibition, 48 h
# SK-MEL-2 melanoma = test system: SK-MEL-2 melanoma
# PC-3 prostate = test system: PC-3 prostate
# SF-539 CNS = test system: SF-539 CNS
# NCI-H522 lung = test system: NCI-H522 lung
# HCC-2998 colon = test system: HCC-2998 colon
# TK-10 renal = test system: TK-10 renal
# M14 melanoma = test system: M14 melanoma
# NCI-H226 lung = test system: NCI-H226 lung
# RPMI-8226 leukemia = test system: RPMI-8226 leukemia
# SK-MEL-28 melanoma = test system: SK-MEL-28 melanoma
Compound,GI50 (SK-MEL-2 melanoma),TGI (SK-MEL-2 melanoma),GI50 (PC-3 prostate),TGI (PC-3 prostate),GI50 (SF-539 CNS),TGI (SF-539 CNS),GI50 (NCI-H522 lung),TGI (NCI-H522 lung),GI50 (HCC-2998 colon),TGI (HCC-2998 colon),GI50 (TK-10 renal),TGI (TK-10 renal),GI50 (M14 melanoma),TGI (M14 melanoma),GI50 (NCI-H226 lung),TGI (NCI-H226 lung),GI50 (RPMI-8226 leukemia),TGI (RPMI-8226 leukemia),GI50 (SK-MEL-28 melanoma),TGI (SK-MEL-28 melanoma)
O=C(NCc1ccco1)c1cccc(NC2=C(Cl)C(=O)N(Cc3ccccc3)C2=O)c1,3.3 µM,20.7 µM,5.11 µM,19.6 µM,3.53 µM,15 µM,2.84 µM,20.8 µM,10.8 µM,25.6 µM,3.54 µM,9.18 µM,11.7 µM,24.6 µM,12.7 µM,62.7 µM,1.06 µM,3.29 µM,16.4 µM,46.6 µM
O=C(CC(=O)c1cccc(Cl)c1)c1cccc(Cl)c1,4.75 µM,> 100 µM,2.41 µM,> 100 µM,2.91 µM,> 100 µM,2.72 µM,> 100 µM,5.31 µM,> 100 µM,4.12 µM,> 100 µM,2.35 µM,> 100 µM,2.88 µM,> 100 µM,1.45 µM,> 100 µM,2.7 µM,> 100 µM
Oc1[nH]c2ccccc2c1N=Nc1c(F)c(F)c(F)c(F)c1F,,> 100 µM,,> 100 µM,,> 100 µM,,47.7 µM,,> 100 µM,,62.8 µM,,> 100 µM,,> 100 µM,,25.4 µM,,> 100 µM
COc1cc(/C=C/c2cc(/C=C/c3ccc(O)c(OC)c3)n(C(=O)Nc3ccc(Cl)cc3)n2)ccc1O,0.403 µM,2.01 µM,0.497 µM,5.78 µM,0.501 µM,2.41 µM,0.215 µM,0.802 µM,1.68 µM,6.01 µM,0.966 µM,6.18 µM,0.37 µM,1.4 µM,2.16 µM,7.92 µM,0.376 µM,2.48 µM,1.07 µM,4.07 µM
O=c1cc(-c2ccccc2)oc2cc(OC/C(=N/O)c3ccc(F)cc3)ccc12,20.2 µM,> 50 µM,11.9 µM,40.1 µM,11.5 µM,26 µM,14.9 µM,> 50 µM,15.3 µM,45.8 µM,13.7 µM,31.8 µM,46.7 µM,> 50 µM,27.6 µM,> 50 µM,15.9 µM,> 50 µM,27.1 µM,> 50 µM
CNS(=O)(=O)OCC1OC(n2cnc3c(N)ncnc32)C(O)C1O (stereo not given),> 100 µM,> 100 µM,> 100 µM,> 100 µM,> 100 µM,> 100 µM,> 100 µM,> 100 µM,> 100 µM,> 100 µM,> 100 µM,> 100 µM,> 100 µM,> 100 µM,> 100 µM,> 100 µM,> 100 µM,> 100 µM,> 100 µM,> 100 µM
Cc1cc(Nc2cc(N3CCN(C)CC3)nc(Sc3ccc(NC(=O)C4CC4)cc3)n2)n[nH]1,5.51 µM,> 10 µM,4.24 µM,> 10 µM,1.92 µM,> 10 µM,4.16 µM,> 10 µM,5.66 µM,> 10 µM,> 10 µM,> 10 µM,1.48 µM,> 10 µM,0.737 µM,> 10 µM,4.02 µM,> 10 µM,3.47 µM,> 10 µM
N#CN1CC[C@H](C(=O)Nc2cc3cc(C(N)=O)ccc3cn2)C1,0.0266 µM,0.107 µM,0.257 µM,20.4 µM,0.0589 µM,0.319 µM,0.0695 µM,0.247 µM,0.144 µM,10.8 µM,0.232 µM,2.44 µM,0.0694 µM,1.13 µM,0.238 µM,5.08 µM,0.272 µM,1.46 µM,0.117 µM,9.41 µM
Cc1ccc(-c2nc(-c3cn(C)c4ncccc34)cs2)cc1,6.77 µM,34 µM,4.49 µM,> 44.1 µM,5.59 µM,18.7 µM,2.14 µM,16.7 µM,8.96 µM,22.8 µM,6.74 µM,21.6 µM,2.35 µM,8.18 µM,4.35 µM,24.7 µM,7.37 µM,> 69.8 µM,10.2 µM,26.4 µM
Cc1c(C(N)=O)sc2c1c(=O)n(Cc1ccccc1)c1nnc(-c3ccc(Br)cc3)n21,5.73 µM,18.7 µM,4.06 µM,22.3 µM,2.87 µM,12.5 µM,3.13 µM,12.9 µM,1.91 µM,14.6 µM,3.33 µM,16.3 µM,1.51 µM,3.67 µM,2.46 µM,9.82 µM,4.72 µM,47.7 µM,4.09 µM,17.1 µM
O=C(Nc1ccccc1O)c1ccc(NS(=O)(=O)c2cccc3cccnc23)cc1,0.806 µM,4.35 µM,1.46 µM,8.25 µM,0.76 µM,10.1 µM,0.67 µM,3.47 µM,1.59 µM,5.23 µM,0.704 µM,3.45 µM,1.18 µM,5.61 µM,2.36 µM,7.27 µM,0.464 µM,> 9.66 µM,0.834 µM,4.91 µM
COc1ccccc1NS(=O)(=O)c1ccc2oc(SC(C)C)nc2c1,15.6 µM,61.5 µM,12.4 µM,45.7 µM,18.6 µM,56.1 µM,10.2 µM,75.7 µM,27 µM,51.4 µM,18.5 µM,53.8 µM,36.1 µM,> 100 µM,10.3 µM,43.9 µM,2.4 µM,24.4 µM,37.5 µM,> 100 µM
CCS(=O)(=O)c1ccc(OC)c(Nc2ncc(-c3ccccc3Cl)o2)c1,9.06 µM,> 21.6 µM,11.4 µM,> 25 µM,10.6 µM,> 25 µM,8.95 µM,> 25 µM,18.1 µM,> 25 µM,16.6 µM,> 25 µM,12.5 µM,> 25 µM,7.72 µM,> 25 µM,13.4 µM,> 25 µM,> 25 µM,> 25 µM
Cc1cccc(NC(=O)/C=C/c2ccc([N+](=O)[O-])cc2)c1,,49.4 µM,,28.6 µM,,> 74.1 µM,,> 53.9 µM,,32.7 µM,,> 56.8 µM,,> 59.4 µM,,> 72 µM,,> 68.8 µM,,> 57.6 µM
Cc1cnc(Nc2ccc(N3CCN(C)CC3)cc2)nc1Nc1ccc(Cl)c(NS(=O)(=O)C(C)(C)C)c1,0.31 µM,3.76 µM,0.408 µM,16.9 µM,0.434 µM,1.84 µM,0.073 µM,1.6 µM,0.383 µM,1.84 µM,0.0638 µM,0.936 µM,0.112 µM,1.78 µM,0.23 µM,2.09 µM,0.136 µM,1.31 µM,0.772 µM,2.73 µM
COc1ccc(/C=C\c2cc(OC)c(OC)c(OC)c2)cc1OCC(=O)Nc1ccc2nc(C)sc2c1,3.15 µM,19.1 µM,2.8 µM,8.01 µM,2.56 µM,14.6 µM,2.28 µM,7.06 µM,6.9 µM,> 100 µM,4.21 µM,> 100 µM,3.38 µM,10.4 µM,2.75 µM,12 µM,1.98 µM,4.69 µM,3.22 µM,13.1 µM
COc1ccc(C(CC(=O)c2ccccc2)C(C(=O)c2ccccc2)C(c2ccc(OC)cc2)C2C(=O)NC(=S)NC2=O)cc1 (stereo not given),13.8 µM,49 µM,5.61 µM,> 100 µM,10.1 µM,36.1 µM,11.9 µM,35.1 µM,2.46 µM,16.6 µM,18.7 µM,> 100 µM,36.9 µM,> 100 µM,38.4 µM,> 100 µM,25.6 µM,> 100 µM,16 µM,> 100 µM
c1ccc([As]=[As]c2ccccc2)cc1 (stereo not given),1.62 µM,3.47 µM,1.27 µM,2.64 µM,0.884 µM,2.36 µM,1.09 µM,2.42 µM,1.72 µM,3.41 µM,1.61 µM,3.38 µM,1.55 µM,4.17 µM,1.46 µM,4.15 µM,0.543 µM,2.97 µM,0.922 µM,2.32 µM
